Measured values as given in publication PMC9506480, “Synthesis and Evaluation of Antiproliferative Activity, Topoisomerase IIα Inhibition, DNA Binding and Non-Clinical Toxicity of New Acridine–Thiosemicarbazone Derivatives” (Pharmaceuticals, 2022).

Assays:
[1] = system: HCT116 (human colon carcinoma); test: Alamar blue cytotoxicity assay, HCT116; format: cell-based; conditions: HCT-116, 72 h incubation
Experimental: (§1) The in vitro cytotoxic activity of the compounds (Table 1) was evaluated against cancer cell lines HCT116 (human colon carcinoma), HepG2 (human hepatocellular carcinoma), B16F10 (murine melanoma carcinoma) and non-cancerous cell line MRC-5 (human lung fibroblast) using the Alamar blue assay after 72 h of incubation; doxorubicin (DOX) was used as a positive control. The unsubstituted derivatives on the acridine cores were encoded as CL, and the disubstituted derivatives as DL.
(§2) The human cancer cell lines HCT116 (colon carcinoma) and HepG2 (hepatocellular carcinoma), the mouse cancer cell line B16-F10 (melanoma), and the non-cancerous human cell line MRC-5 (lung fibroblast) were obtained from the American Type Culture Collection (ATCC, Manassas, VA, USA) and cultured according to the ATCC animal cell culture guide. All cell lines tested negative for mycoplasma using a mycoplasma stain kit.
(§3) Cell viability was measured using the Alamar blue assay, as previously described. Cells were seeded in 96-well plates for all experiments. The compounds were dissolved in dimethyl sulfoxide (DMSO, Sigma-Aldrich) and added to each well in eight serial concentrations ranging from 0.19 to 25 μg/mL. As a positive control, doxorubicin was used. After 72 h of treatment, 20 μL of resazurin (0.312 mg/mL) was added to each well. A SpectraMax 190 Micro-plate Reader was used to measure absorbances at 570 and 595 nm (Molecular Devices, Sunnyvale, CA, USA). Nonlinear regression with 95% confidence intervals (CI 95%) was used to calculate the inhibitory concentration of 50% (IC50) using GraphPad Prism software (Intuitive Software for Science; San Diego, CA, USA).

[2] = system: HepG2 (human hepatocellular carcinoma); test: Alamar blue cytotoxicity assay, HepG2; format: cell-based; conditions: 72 h incubation
Experimental: as §1, §2, §3

[3] = system: MRC-5 (human lung fibroblast); test: Alamar blue cytotoxicity assay, non-cancerous MRC-5; format: cell-based; conditions: MRC5, 72 h incubation, non-cancerous cell
Experimental: as §1, §2, §3

[4] = system: B16-F10 (murine melanoma); test: Alamar blue cytotoxicity assay, B16-F10; format: cell-based; conditions: Mus musculus, 72 h incubation
Experimental: as §1, §2, §3

[5] = molecular target: T1, recombinant human topoisomerase IIα (p170) (Homo sapiens, UniProt P11388); test: Human topoisomerase IIα inhibition assay (pUC19 plasmid relaxation); format: biochemical
T1 construct: purchased Sigma-Aldrich
T1 sequence (P11388 whole entry): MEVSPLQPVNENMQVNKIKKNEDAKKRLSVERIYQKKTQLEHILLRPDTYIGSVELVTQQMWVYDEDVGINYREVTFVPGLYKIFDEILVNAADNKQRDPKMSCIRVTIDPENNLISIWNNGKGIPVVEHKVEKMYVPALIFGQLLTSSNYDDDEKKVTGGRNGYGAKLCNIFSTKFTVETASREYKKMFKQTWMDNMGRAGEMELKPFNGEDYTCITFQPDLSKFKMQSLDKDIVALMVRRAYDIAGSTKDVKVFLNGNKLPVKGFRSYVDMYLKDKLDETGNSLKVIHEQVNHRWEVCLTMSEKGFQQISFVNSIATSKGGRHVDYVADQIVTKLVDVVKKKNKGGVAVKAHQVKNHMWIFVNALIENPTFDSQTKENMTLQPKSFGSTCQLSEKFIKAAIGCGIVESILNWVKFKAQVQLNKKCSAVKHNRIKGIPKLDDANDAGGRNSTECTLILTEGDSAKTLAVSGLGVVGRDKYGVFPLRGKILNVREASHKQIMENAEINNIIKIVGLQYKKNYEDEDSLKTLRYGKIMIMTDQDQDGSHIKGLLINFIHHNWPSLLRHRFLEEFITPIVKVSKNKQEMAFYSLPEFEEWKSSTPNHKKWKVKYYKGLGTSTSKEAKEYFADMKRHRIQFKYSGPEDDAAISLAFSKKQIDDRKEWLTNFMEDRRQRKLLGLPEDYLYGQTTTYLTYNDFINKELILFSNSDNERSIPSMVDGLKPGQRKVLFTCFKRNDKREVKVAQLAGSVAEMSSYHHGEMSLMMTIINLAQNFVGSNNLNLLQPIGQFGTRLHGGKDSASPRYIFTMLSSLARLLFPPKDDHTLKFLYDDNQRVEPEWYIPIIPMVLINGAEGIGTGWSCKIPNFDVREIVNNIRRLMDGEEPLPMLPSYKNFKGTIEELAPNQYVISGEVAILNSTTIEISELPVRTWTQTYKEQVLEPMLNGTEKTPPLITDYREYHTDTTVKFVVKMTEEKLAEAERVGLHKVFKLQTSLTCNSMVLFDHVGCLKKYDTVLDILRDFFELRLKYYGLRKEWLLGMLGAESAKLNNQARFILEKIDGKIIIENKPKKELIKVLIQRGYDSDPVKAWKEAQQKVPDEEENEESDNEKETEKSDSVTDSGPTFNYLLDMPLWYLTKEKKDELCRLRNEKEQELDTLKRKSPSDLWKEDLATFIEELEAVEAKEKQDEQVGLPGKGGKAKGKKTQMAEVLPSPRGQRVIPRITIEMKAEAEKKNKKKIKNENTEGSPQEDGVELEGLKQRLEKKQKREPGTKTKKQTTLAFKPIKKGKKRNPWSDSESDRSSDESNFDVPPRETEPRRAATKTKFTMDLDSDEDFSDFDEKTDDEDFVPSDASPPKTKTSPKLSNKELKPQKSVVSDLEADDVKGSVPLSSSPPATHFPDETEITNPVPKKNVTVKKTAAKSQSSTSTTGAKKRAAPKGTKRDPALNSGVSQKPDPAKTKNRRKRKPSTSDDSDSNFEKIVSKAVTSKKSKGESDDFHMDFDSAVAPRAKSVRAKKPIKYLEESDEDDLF
Excerpt: Several studies have shown the ability of acridines to inhibit topoisomerases, being considered the main mechanism responsible for the antiproliferative activities of this scaffold. The possibility of the new acridine derivatives to inhibit Topo IIα in its biological function of DNA double-strand relaxation was investigated in this work. This enzymatic inhibition can be accompanied by the presence of a supercoiled or relaxed DNA band, performed with the pUC19 plasmid, as shown in Figure 2. In this study, mAMSA was used as a positive inhibition control.
For testing the ability of Topo IIα inhibition, the compounds were evaluated in the DNA plasmid relaxation assay. This test consists of evaluating the Topo IIα enzyme activity in the absence and presence of the compound, followed by electrophoresis analysis, as previously described by Almeida et al. (2016). Briefly, 100 ng pUC19 DNA plasmid (Sigma-Aldrich) and 4.0 units of recombinant human (p170) topoisomerase II (Sigma-Aldrich) in relaxation buffer without or with tested compounds were incubated for 30 min at 37 °C. The tested concentrations were […], and amsacrine (mAMSA) was used as a positive control. Reactions were terminated with 1% SDS and digested with proteinase K. Then, the reaction products were analyzed by electrophoresis gel stained with ethidium bromide and photographed under UV light. Quantitative evaluation (% of enzyme inhibition by compounds about the positive control mAMSA) of the gel bands corresponding to supercoiled DNA was performed by densitometry using image-processing software (Scion Image, version Beta 4.0.2.) according to Gouveia et al. (2018).
Figure 2 Effects of mAMSA and its acridine derivatives on topoisomerase IIα activity. Effects of derivatives and positive control on the inhibition of human topoisomerase IIα. Native supercoiled pUC19 was incubated for 30 min at 37 °C with […] of human Topo IIα in the absence (lane 2) or presence of ligands at a concentration 100 μM. Inhibition of Topo IIα-induced DNA relaxation by mAMSA (lane 3) was used as a positive control. DNA samples were run on an agarose gel followed by ethidium bromide staining.

SMILES	IC50 [1] [µM]	IC50 [2] [µM]	IC50 [3] [µM]	IC50 [4] [µM]	melting point [°C]	inhibition of Topo IIα enzymatic activity (in words) ([5]; 100 µM)	% of enzyme inhibition ([5]; 100 µM, densitometry, relative to positive control mAMSA, '-' = no inhibition) [%]	inhibition at 100 µM ([5]; densitometry, relative to positive control mAMSA, '-' = no inhibition, read-out: % of enzyme inhibition) [%]
S=C(N/N=C/c1ccccc1)Nc1c2ccccc2nc2ccccc12 [CL-01, (E)-N-(acridin-9-yl)-2-benzylidenehydrazine-1-carbothioamide]	> 70	> 70	> 70					
S=C(N/N=C/c1ccc(Cl)cc1)Nc1c2ccccc2nc2ccccc12 [CL-02, (E)-N-(acridin-9-yl)-2-(4-chlorobenzylidene)hydrazine-1-carbothioamide]	> 70	> 70	> 70					
COc1ccc(/C=N/NC(=S)Nc2c3ccccc3nc3ccccc23)cc1 [CL-03, (E)-N-(acridin-9-yl)-2-(4-methoxybenzylidene)hydrazine-1-carbothioamide]	> 70	> 70	> 70	> 70				
S=C(N/N=C/c1ccc(Cl)cc1Cl)Nc1c2ccccc2nc2ccccc12 [CL-04, (E)-N-(acridin-9-yl)-2-(2,4-dichlorobenzylidene)hydrazine-1-carbothioamide]	> 60	> 60	> 60					
O=[N+]([O-])c1ccc(/C=N/NC(=S)Nc2c3ccccc3nc3ccccc23)cc1 [CL-05, (E)-N-(acridin-9-yl)-2-(4-nitrobenzylidene)hydrazine-1-carbothioamide]	> 60	> 60	26.8	22.7				
Cc1ccc(/C=N/NC(=S)Nc2c3ccccc3nc3ccccc23)cc1 [CL-06, (E)-N-(acridin-9-yl)-2-(4-methylbenzylidene)hydrazine-1-carbothioamide]	64.8	58.1	28	23.5				
Oc1cccc(/C=N/NC(=S)Nc2c3ccccc3nc3ccccc23)c1 [CL-08, (E)-N-(acridin-9-yl)-2-(3-hydroxybenzylidene)hydrazine-1-carbothioamide]	39.2	49.4	33.4	21.3				
CN(C)c1ccc(/C=N/NC(=S)Nc2c3ccccc3nc3ccccc23)cc1 [CL-09, (E)-N-(acridin-9-yl)-2-(4-(dimethylamino)benzylidene)hydrazine-1-carbothioamide]	> 60	> 60	> 60					
S=C(N/N=C/c1ccc(Br)cc1)Nc1c2ccccc2nc2ccccc12 [CL-10, (E)-N-(acridin-9-yl)-2-(4-bromobenzylidene)hydrazine-1-carbothioamide]	> 60	> 60	> 60					
COc1ccc2nc3cc(Cl)ccc3c(NC(=S)N/N=C/c3ccc(Cl)cc3)c2c1 [DL-02, (E)-N-(6-chloro-2-methoxyacridin-9-yl)-2-(4-chlorobenzylidene)hydrazine-1-carbothioamide]	> 60	> 60	> 60	30.6	144 to 145			
COc1ccc(/C=N/NC(=S)Nc2c3ccc(Cl)cc3nc3ccc(OC)cc23)cc1 [DL-03, (E)-N-(6-chloro-2-methoxyacridin-9-yl)-2-(4-methoxybenzylidene)hydrazine-1-carbothioamide]	> 60	> 60	> 60	> 60	148			
COc1ccc2nc3cc(Cl)ccc3c(NC(=S)N/N=C/c3ccc(Cl)cc3Cl)c2c1 [DL-04, (E)-N-(6-chloro-2-methoxyacridin-9-yl)-2-(2,4-dichlorobenzylidene)hydrazine-1-carbothioamide]	> 60	> 60	> 60	> 60	192 to 193			
COc1ccc2nc3cc(Cl)ccc3c(NC(=S)N/N=C/c3ccc([N+](=O)[O-])cc3)c2c1 [DL-05, (E)-N-(6-chloro-2-methoxyacridin-9-yl)-2-(4-nitrobenzylidene)hydrazine-1-carbothioamide]	> 60	> 60	> 60	> 60	164 to 165			
COc1ccc2nc3cc(Cl)ccc3c(NC(=S)N/N=C/c3ccc(C)cc3)c2c1 [DL-06, (E)-N-(6-chloro-2-methoxyacridin-9-yl)-2-(4-methylbenzylidene)hydrazine-1-carbothioamide]	> 60	33.4	> 60	26.3	157 to 158	did not show inhibition capacity		
COc1ccc2nc3cc(Cl)ccc3c(NC(=S)N/N=C/c3ccc(O)cc3)c2c1 [DL-07, (E)-N-(6-chloro-2-methoxyacridin-9-yl)-2-(4-hydroxybenzylidene)hydrazine-1-carbothioamide]	28.5	24.8	23.6	21.1	163 to 164	able to inhibit the enzymatic activity	74	> 74
COc1ccc2nc3cc(Cl)ccc3c(NC(=S)N/N=C/c3ccc(N(C)C)cc3)c2c1 [DL-09, (E)-N-(6-chloro-2-methoxyacridin-9-yl)-2-(4-(dimethylamino)benzylidene)hydrazine-1-carbothioamide]	> 60	> 60	> 60	46	149 to 150			
COc1ccc2nc3cc(Cl)ccc3c(NC(=S)N/N=C/c3ccc(Br)cc3)c2c1 [DL-10, (E)-2-(4-bromobenzylidene)-N-(6-chloro-2-methoxyacridin-9-yl)hydrazine-1-carbothioamide]	> 50	20.9	> 50	34.6	162 to 163			
COc1cccc2c1C(=O)c1c(O)c3c(c(O)c1C2=O)C[C@@](O)(C(=O)CO)C[C@@H]3O[C@H]1C[C@H](N)[C@H](O)[C@H](C)O1 [DOX, doxorubicin, reference compound]	0.15	0.15	2.22	0.03				
